# Data taken from patent US20210338650A1, “CXCL10 Inhibitors” (LAPKO INC, dba AFECTA PHARMACEUTICALS, priority 2020, published 2021).
# What was measured:
# [1] = tested on: human subjects suffering from dermatitis; test: Clinical treatment of dermatitis/eczema with topical cream, Investigator's Global Assessment (IGA); format: in vivo; conditions: 7% topical cream twice per day, 3-4 weeks, vs area treated with cream base alone
# Excerpt: To test the effect of the compounds on treatment of human dermatologic disorders associated with increased CXCL10 production by keratinocytes, Compound 97 and Compound 98 were formulated with stearic acid, lanolin (anhydrous), mineral oil and triethanolamine into a topically applied cream at a concentration of 7%. The compounds in the cream base were applied topically twice per day to human subjects suffering from dermatitis in an area of the skin with active skin lesions for 3-4 weeks. The control was the topical cream base composition without the active compounds. Outcome was measured by an experienced clinical observer as assessed by visible reduction or disappearance of the lesions as assessed in the treated area vs the control area treated only with the cream base alone using Investigator's Global Assessment (IGA) scale.
# CXCL10 = CXCL10 levels in retina tissue of STZ diabetic rats, topical eye drops; format: in vivo; conditions: eye drops 1-5%, 20 μL three times per day, 30 days, retina homogenate ELISA, vs control eye
# Excerpt: CXCL10 expression is associated with age related and diabetes induced retinopathy. A hallmark of these retinopathies is retinal vascular leakage (i.e. increased retinal vascular permeability) thought to induced by CXCL10. To test the in vivo effect of the compounds on treatment of retinopathies associated with increased CXCL10 levels, diabetes was induced in rats by treatment with Streptozotocin (STZ) according established methods (Akbarzadeh et al, J Clin Biochem. 2007 September; 22(2): 60-64) Testing began once the diabetes had been established in the animals. Compounds were formulated into a topically applied eye drop solution containing 1-5% of compounds 91 and 108 along with ethylene glycol, sodium lauryl sulfate, hyaluronic acid, and sterile water at pH 7.0. […] CXCL10 expression was measured in retina tissue homogenate and retinal vascular permeability was assayed using the measurement of leakage of Evans Blue dye from retinal vessels, a well-established method (Invest Ophthalmol Vis Sci 2001 March; 42: 789-794).
Compound,"dermatitis/eczema lesions, Investigator's Global Assessment (IGA) [1]",amount of CXCL10 produced by the retina (CXCL10)
Cc1c(OCC(F)(F)F)ccnc1C[S+]([O-])c1nc2ccccc2[nH]1 (stereo not shown) [Compound 97],pronounced effect on reducing the dermatitis/eczema,
COc1ccc2[nH]c([S+]([O-])Cc3ncc(C)c(OC)c3C)nc2c1 (stereo not shown) [Compound 91],,significant reduction
COc1ccnc(C[S+]([O-])c2nc3cc(OC(F)F)ccc3[nH]2)c1OC (stereo not shown) [Compound 108],,significant reduction
COCCCOc1ccnc(C[S+]([O-])c2nc3ccccc3[nH]2)c1C (stereo not shown) [Compound 98],pronounced effect on reducing the dermatitis/eczema,
